Data reported in paper PMC7662321, “Andrographolide and Its 14-Aryloxy Analogues Inhibit Zika and Dengue Virus Infection” (Molecules, 2020).
Read-outs that look alike come from different tables or passages of the source.

How the values were obtained:
[1] = test system: ZIKV; assay: Percentage of ZIKV infection of A549 cells by flow cytometry; assay type: cell-based, Zika virus; conditions: A549, MOI 5, 10 and 25 µM, 24 h, vs vehicle
Method: (§1) To confirm the effects of andrographolide and the andrographolide analogues on ZIKV infection, A549 cells were infected with ZIKV at MOI of 5 for 2 h, and subsequently treated with the compounds at concentrations of 10 and 25 μM or with vehicle for 24 h. The cells were harvested for determination of the percentage of infection by flow cytometry, while the supernatants were collected for determination of viral titer by standard plaque assay.
(§2) HEK293T/17 or A549 cells were cultured in six-well plates under standard conditions until the cells reached 80% confluence. HEK293T/17 cells were infected with DENV 2, while A549 cells were infected with ZIKV Thai strain at MOI 5 for 2 h at 37 °C and 5% CO2 in culture medium without FBS. Mock infection was undertaken in parallel. After the infection period, the medium was removed and replaced with complete medium (including FBS) containing 0.1% DMSO (no treatment control) or the appropriate concentration of each compound and cells were again incubated under standard conditions. At 24 h post-treatment, cells were harvested for determination of effects of compounds on percentage of infection and supernatant was collected for determination of viral productivity. All experiments were undertaken independently in triplicate with duplicate plaque assay.
Mock- or viral-infected cells (with or without compound treatment) were harvested at an appropriate time point then incubated with 10% normal goat serum (NGS; Gibco Invitrogen) in PBS-immunofluorescence assay (IFA) buffer on ice for 30 min. The cells were washed with 800 µL of 1% BSA/PBS-IFA and fixed with 200 µL of 4% paraformaldehyde in PBS-IFA at room temperature in the dark for 20 min. After washing with 800 µL of 1% BSA/PBS-IFA, cells were permeabilized with 200 µL of 0.2% Triton X-100 in PBS-IFA for 10 min at room temperature in the dark. Subsequently, the cells were washed with 800 µL of 1% BSA/PBS-IFA followed by overnight incubation with 50 µL of primary antibody (1:150 dilution of pan-specific anti-dengue virus E protein antibody HB114 for DENV and 1:2 dilution of anti-flavivirus antibody HB112 for ZIKV). After washing twice with 800 µL of 1% BSA/PBS-IFA, the cells were incubated with 50 µL of a goat anti-mouse IgG conjugated with fluorescein isothiocyanate (FITC; KPL, Guilford, UK) diluted 1:40 with 1% BSA/PBS-IFA at room temperature in the dark for 1 h. The cells were washed twice with 800 µL of 1% BSA/PBS-IFA and resuspended in 100 µL of PBS-IFA. The fluorescence signal was analyzed by flow cytometry on a BD FACalibur cytometer (Becton Dickinson, BD Biosciences, San Jose, CA, USA) using CellQuest™ software (Version 6). All experiments were undertaken independently in triplicate. All raw flow cytometry data plots are provided in Supplementary Figures S13–S19.

[2] = test system: ZIKV; assay: ZIKV viral production in A549 cells by standard plaque assay; assay type: cell-based, Zika virus; conditions: for ZIKV viral production, concentration dependence: A549, MOI 5, 1 to 100 µM; for Selective Index (SI): ZIKV, CC50 and EC50 in A549 cells; for EC50: Zika virus, A549 cells, MOI 5, 24 h treatment post-infection, plaque assay, read-out: EC50 against ZIKV infection
Method: as §1
(§3) Thus, the EC50 values of ZAD-1 and andrographolide were determined against ZIKV and DENV 2. For ZIKV, A549 cells were infected with ZIKV at MOI 5 and after 2 h of infection, the cells were incubated with ZAD-1 or andrographolide at a range of concentrations (1 to 100 µM) for 24 h, after which the supernatants were collected for determination of EC50 values by standard plaque assay. Both ZAD-1 and andrographolide reduced viral production in a dose-dependent manner (Figure 4A). […] For DENV 2, HEK293T/17 cells were infected with DENV 2 at MOI 5 for 2 h and followed by incubation with ZAD-1 or andrographolide at a range of concentrations (1 to 100 µM) for 24 h. […] The EC50 value for andrographolide in DENV infection is consistent with our previous study undertaken in HepG2 and HeLa cells with the same virus.
(§4) DENV 2 (strain 16681) and ZIKV (strain SV0010/15) virus stocks were propagated in C6/36 cells previously described, and virus titers were determined by standard plaque assay as described previously using Vero cells for ZIKV and LLC-MK2 cells for DENV.
as §2

[3] = test system: DENV 2; assay: DENV 2 viral production in HEK293T/17 cells by standard plaque assay; assay type: cell-based, dengue virus; conditions: for Selective Index (SI): DENV, CC50 and EC50 in HEK293T/17 cells; for EC50: Dengue virus, read-out: EC50 against DENV 2 infection; for DENV 2 viral production, concentration dependence: HEK293T/17, MOI 5, 1 to 100 µM
Method: The effects of the compounds on DENV-2 infection were evaluated using HEK293T/17 as host cells at MOI of 5. The cells were infected with DENV 2 for 2 h and then the cells were incubated with the compounds at non-cytotoxic (or morphology altering) concentrations of 10 and 25 μM of ZAD-1 and ZAD-3, or 25 and 50 μM of ZAD-2, or 50 and 75 μM of andrographolide or 0.1% DMSO vehicle control. After 24 h of treatment, cells were harvested for determination of the percentage of infection by flow cytometry, while the culture supernatants were collected to determine the viral production.
as §3, §4, §2

[4] = test system: HSPA1A; assay: Western blot of HSPA1A expression in treated A549 cells; assay type: cell-based, human; conditions: A549, 25 µM, 24 h, normalized to GAPDH
Method: To confirm the 2D-gel analysis results, HSPA1A and PGK1 were selected for the validation by Western blot. The same three experimental conditions were established, namely A549 cells treated with vehicle (0.025% DMSO), 25 μM andrographolide or 25 μM ZAD-1. Glyceraldehyde-3-phosphate dehydrogenase (GAPDH) was used as a loading control and the proteins were normalized to this protein. […] While the difference in HSPA1A expression between andrographolide treatment and ZAD-1 treatment is consistent with the spot intensity data (Table 3), the spot density for the control DMSO treatment is not consistent with the western blot result.
A total of 40 µg of proteins were separated by electrophoresis through a 12% sodium dodecyl sulfate (SDS) polyacrylamide gel and transferred to a nitrocellulose membrane by electroblotting. The membranes were blocked with 5% skim milk in TBS-T (20 mM Tris, 140 mM NaCl and 0.1% Tween-20) at room temperature for 1 h with shaking. […] The signal of specific protein bands was detected using the Luminata Forte Western HRP Substrate (Millipore Corp., Burlington, MA, USA) and recorded by film autoradiography. […]

C=C1CC[C@@H]2[C@](C)(CO)[C@H](O)CC[C@@]2(C)[C@@H]1C/C=C1/C(=O)OC[C@H]1O [Andrographolide]
number of ZIKV-infected cells (percentage of infection) [1]: significantly reduced | ZIKV viral production, concentration dependence ([2]; 24 h): dose-dependent | Selective Index (SI) [2]: 6.6 | EC50 [2]: 31.8 ± 3.5 µM | Selective Index (SI) [3]: 8.4 | EC50 ([3]; HEK293T/17, 24 h): 35.2 ± 2.5 µM | DENV 2 viral production, concentration dependence ([3]; 24 h): dose-dependent reductions | HSPA1A expression compared with the vehicle control [4]: significantly increased

C=C1CC[C@@H]2[C@]3(C)COC(C)(C)O[C@@H]3CC[C@@]2(C)[C@@H]1C/C=C1/C(=O)OC[C@@H]1Oc1c(Cl)cc(Cl)c2ccc(C)nc12 [ZAD-1]
number of ZIKV-infected cells (percentage of infection) [1]: significantly reduced | inhibitory effect on ZIKV infection, comparison among compounds ([2]; A549, MOI 5, 25 µM, 24 h): greatest inhibitory effect | ZIKV viral production, concentration dependence ([2]; 24 h): dose-dependent | Selective Index (SI) [2]: 9.8 | EC50 [2]: 27.9 ± 1.7 µM | Selective Index (SI) [3]: 6.6 | EC50 ([3]; HEK293T/17 cells, MOI 5, 24 h treatment post-infection, plaque assay): 22.6 ± 1.8 µM | DENV 2 viral production, comparison among compounds ([3]; HEK293T/17, MOI 5, 25 µM, 24 h): greatest reduction | DENV 2 viral production, concentration dependence ([3]; 24 h): dose-dependent reductions | HSPA1A expression compared with the vehicle control [4]: no significant difference from control
